The values below come from ChEMBL document CHEMBL1134911, “Nodulisporic acid B, B1, and B2: a series of 1'-deoxy-nodulisporic acids from Nodulisporium sp” (Bioorg Med Chem Lett, 2002).

Holding throughout (conditions): pulicinae
Data set [1] can be described thus: Lethal dose was evaluated against flea; NA means not active at 100 ppm. The format is ADME.
Data set [2] is described as follows: Lethal dose was evaluated against flea.
The nature of data set [3]: Lethal dose was evaluated against flea; partial activity. The format is ADME.

As for `C=C(C)[C@H]1Cc2c3c(cc4c2N1C(=O)[C@@]1(C)[C@@H](CC[C@H]2[C@](C)(/C=C/C=C(\C)C(=O)OC)[C@@H](O)CC[C@@]21C)CC4=O)C1=CC(C)(C)OC(C)(C)[C@H]1[C@@H]3O`, the LD90 result in data set [1] is listed as “Not Active”.
In data set [2], `C=C(C)[C@H]1C(=O)c2c3c(cc4c5c(n1c24)[C@@]1(C)[C@@H](CC[C@@H]2[C@]1(C)CC[C@]1(O)O[C@H](C(O)C(C)C(=O)O)C[C@@]21C)C5)C1=CC(C)(C)OC(C)(C)[C@H]1[C@@H]3O` (stereo partly specified) [NODULISPORIC ACID A2] yielded an LD90 of 10 p.p.m.
On the same count and under the same terms, to IVERMECTIN belongs 10 p.p.m.
Turning to `C=C(C)[C@H]1Cc2c3c(cc4c5c(n1c24)[C@@]1(C)[C@@H](CC[C@H]2[C@](C)(/C=C/C=C(\C)C(=O)OC)[C@@H](O)CC[C@@]21C)C5)C1=CC(C)(C)OC(C)(C)[C@H]1[C@@H]3O`, the LD90 is on record as 100 p.p.m in data set [2] and 10 p.p.m in data set [3].
For the compound `C=C(C)[C@H]1Cc2c3c(cc4c5c(n1c24)[C@@]1(C)[C@@H](CC[C@H]2[C@](C)(/C=C/C=C(\C)C(=O)[O-])[C@@H](O)CC[C@@]21C)C5)C1=CC(C)(C)OC(C)(C)[C@H]1[C@@H]3O.[Na+]`, the LD90 in data set [2] amounted to 100 p.p.m.
In data set [2], `C=C(C)[C@H]1C(=O)c2c3c(cc4c5c(n1c24)[C@@]1(C)C(CC[C@H]2[C@](C)(/C=C/C=C(\C)C(=O)O)[C@@H](O)CC[C@@]21C)C5)C1=CC(C)(C)OC(C)(C)C1[C@@H]3O` (stereo partly specified) [NOD ACID A] yielded an LD90 of 1 p.p.m.
Take `C=C(C)[C@H]1Cc2c3c(cc4c5c(n1c24)[C@@]1(C)[C@@H](CC[C@@H]2[C@]1(C)CC[C@]1(O)O[C@H](/C=C(\C)C(=O)[O-])C[C@@]21C)C5)C1=CC(C)(C)OC(C)(C)[C@H]1[C@@H]3O.[Na+]`: in data set [1], the LD90 entry was “Not Active”.
Same read-out and setting: to `C=C(C)[C@H]1Cc2c3c(cc4c5c(n1c24)[C@@]1(C)[C@@H](CC[C@@H]2[C@]1(C)CC[C@]1(O)O[C@H](C(O)C(C)C(=O)[O-])C[C@@]21C)C5)C1=CC(C)(C)OC(C)(C)[C@H]1[C@@H]3O.[Na+]` (stereo partly specified) belongs “Not Active”.
Take `C=C(C)[C@H]1C(=O)c2c3c(cc4c5c(n1c24)[C@@]1(C)[C@@H](CC[C@H]2[C@](C)(/C=C/C=C(\C)C(=O)OC)[C@@H](O)CC[C@@]21C)C5)C1=CC(C)(C)OC(C)(C)[C@H]1[C@@H]3O`: in data set [2], the LD90 is given as 10 p.p.m.
In data set [2], `C=C(C)[C@H]1C(=O)c2c3c(cc4c5c(n1c24)[C@@]1(C)[C@@H](CC[C@@H]2[C@]1(C)CC[C@]1(O)O[C@H](/C=C(\C)C(=O)O)C[C@@]21C)C5)C1=CC(C)(C)OC(C)(C)[C@H]1[C@@H]3O` [NODULISPORIC ACID A1] displayed an LD90 of 5 p.p.m.
